Test results from ChEMBL document CHEMBL1201862, “PubChem BioAssay data set” (2004).
Activity calls are given as the source filed them.

Legend:
[1] = biological target: Protein disulfide-isomerase (Homo sapiens, UniProt P07237); experiment: inhibition of PDI-mediated insulin reduction – biochemical, turbidity, dry powder samples, set 2, confirmation (AID 652146)
[2] = OVCAR8 cell viability loss – plate reader, dry powder samples, PAX8 project, dose response (AID 743197); format: functional, cell-based; settings: OVCAR-8
[3] = PAX5 cellular inhibition readout – cell-based, plate reader, dry powder samples, selectivity assay for PAX8 inhibitor project, dose response (AID 743047); format: functional;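 further: HEK293 cells carrying a Pax5 driven CD19 promoter luciferase reporter; potency of inhibitors that lower reporter luminescence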
Paired box protein Pax-8 = Paired box protein Pax-8 (Homo sapiens, UniProt Q06710); experiment: PAX8 transcriptional activity inhibition in RMG-I – RMG-I cells, luciferase, cherry-pick, dose response (AID 687027); format: functional, cell-based;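 further: luciferase reporter driven by Pax8 target thyroperoxidase promoter measured by SteadyGlo luminescence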
[4] = OV-90 cell viability loss – plate reader, dry powder, SA8, PAX8 inhibitor project, dose response (AID 743149); format: functional, cell-based
[5] = OVCAR-3 cell viability loss – plate reader, dry powder samples, PAX8 inhibitor project, dose response (AID 743044); format: functional, cell-based
[6] = inhibitors acting on PAX2 in cells – cell-based, plate reader, dry powder samples, selectivity assay for PAX8 inhibitor project, dose response (AID 743048); format: functional;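 further: HEK293 cells carrying a WT1 promoter luciferase reporter driven by expressed Pax2; potency is for inhibition of Pax2 driven reporter signal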
[7] = COV362 cell viability loss – plate reader, dry powder, SA12, cytotoxicity control for PAX8 inhibitor project, dose response (AID 743144); format: functional, cell-based
[8] = OVCAR4 cell viability loss – plate reader, dry powder, SA11, cytotoxicity control for PAX8 inhibitor project, dose response (AID 743150); format: functional, cell-based; settings: OVCAR-4
[9] = COV434 cell viability loss – plate reader, dry powder, SA7, cytotoxicity control for PAX8 inhibitor project, dose response (AID 743145); format: functional, cell-based
[10] = PAX8-dependent cell viability loss – plate reader, dry powder, dose response (AID 743049); format: functional, cell-based
[11] = biological target: Induced myeloid leukemia cell differentiation protein Mcl-1 (Homo sapiens, UniProt Q07820); format: functional
Caspase-7 = Caspase-7 (Homo sapiens, UniProt P55210); experiment: caspase-7 enzyme inhibition, selectivity check – biochemical, DEVD-R110 fluorescence, cherry-pick, selectivity assay for caspase-6 inhibitor project, dose response (AID 743295); format: functional
Caspase-8 = Caspase-8 (Homo sapiens, UniProt Q14790); experiment: inhibitors of purified CASP8 protease – biochemical, Z-IETD-R110 fluorescence, cherry-picked samples, selectivity assay for caspase-6 inhibitor project, dose response (AID 743294)
[12] = biological target: Eukaryotic translation initiation factor 4E (Mus musculus, UniProt P63073); experiment: blockers of eIF4G binding by eIF4E – biochemical, TR-FRET, dose response (AID 855); format: functional;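 further: potency for disrupting eIF4E binding to eIF4GI seen as loss of FRET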
Caspase-9 = Caspase-9 (Homo sapiens, UniProt P55211); experiment: inhibitors of purified CASP9 protease – biochemical, fluorescence, plate reader, cherry-picked samples, selectivity assay for caspase-6 inhibitor project, dose response (AID 743293)
Ephrin type-A receptor 4 = Ephrin type-A receptor 4 (Mus musculus, UniProt Q03137); experiment: EphA4 ligand-binding antagonists – biochemical, colorimetric, mouse EphA4, primary screen (AID 689); format: functional
Caspase-6 = biological target: T1, Caspase-6 (Homo sapiens, UniProt P55212); experiment: inhibition of CASP6 peptide cleavage – biochemical, VEID-R110 fluorescence, cherry-pick, dose response (AID 720632)
T1 sequence (P55212 whole entry): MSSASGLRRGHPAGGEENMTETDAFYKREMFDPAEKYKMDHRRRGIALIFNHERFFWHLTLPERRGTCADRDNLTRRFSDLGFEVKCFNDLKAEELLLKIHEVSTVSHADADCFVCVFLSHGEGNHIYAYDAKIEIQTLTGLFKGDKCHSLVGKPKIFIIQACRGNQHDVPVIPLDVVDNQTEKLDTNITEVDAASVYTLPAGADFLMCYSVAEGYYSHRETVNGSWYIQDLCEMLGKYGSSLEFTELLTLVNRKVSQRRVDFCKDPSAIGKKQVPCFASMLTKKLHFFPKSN

HEK293 = experiment: viability loss in HEK293T cells – cell-based, ATP luminescence, cherry-pick samples, cytotoxicity control, dose response (AID 687005); format: functional; settings: Homo sapiens;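 further: cells exposed to compound for 48 hours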
[13] = HEK293 Cytotoxicity Assay Measured in Cell-Based System Using Plate Reader - 7071-01_Inhibitor_Dose_CherryPick_Activity_Set2.; format: functional
[14] = Dd2 malaria parasite growth inhibition potency – SYBR Green, dry powder samples, dose response (AID 1159566); format: functional, cell-based;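 further: potency for growth inhibition with lower SYBR green DNA signal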
[15] = growth inhibition of yeast DHODH-expressing 3D7 parasites – SYBR Green, dry powder samples, dose response (AID 1159570); format: functional, cell-based;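 further: parasite growth measured after 72 hours of compound exposure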
[16] = P. falciparum Dd2 growth inhibitors, dose response, SYBR Green, cherry-picked samples (AID 1159567); format: functional, cell-based
[17] = growth inhibition of PfATP4-mutant resistant parasites – NITD609-resistant line, SYBR Green, dry powder, dose response (AID 1159571); format: functional, cell-based;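 further: parasites synchronized at ring stage by sorbitol before testing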
[18] = viability loss in HepG2 liver cells – cell-based, ATP luminescence, cherry-pick, set 6, cytotoxicity control, dose response (AID 1053125); format: functional
[19] = HeLa cell viability loss – plate reader, dry powder, cytotoxicity control, dose response (AID 651946); format: functional, cell-based
[20] = growth inhibition of replicating M. tuberculosis, dose response, counter-screen, dry powder, IC90 (AID 651617); format: functional; settings: Mycobacterium tuberculosis
[21] = inhibitors of non-replicating M. tuberculosis, dose response, luciferase, dry powder (AID 651619); format: functional; settings: Mycobacterium tuberculosis
[22] = HepG2 hepatoma cell viability loss – plate reader, dry powder, cytotoxicity control, dose response (AID 651947); format: functional, cell-based
[23] = inhibitors of non-replicating M. tuberculosis, dose response, luciferase, dry powder (AID 651620); format: functional; settings: Mycobacterium tuberculosis
[24] = biological target: Oxysterols receptor LXR-beta (Homo sapiens, UniProt P55055); format: functional, cell-based;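 further: Cell-based luminescence dose-response assay of agonist activity at LXR, run as a confirmatory counterscreen to a daf-12 agonist screen; HEK293 cells with Gal4-LXR fusion and GAL4-driven luciferase reporter; agonist potency from rising luciferase signal of a Gal4-LXR reporter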
[25] = viability loss in HepG2 hepatoma cells – cell-based, ATP luminescence, cherry-pick, activator set 2, cytotoxicity control, dose response (AID 1053143); format: functional
Escherichia coli = experiment: microbe, parasite or virus in culture
[26] = biological target: Dual specificity tyrosine-phosphorylation-regulated kinase 1A (Rattus norvegicus, UniProt Q63470); format: biochemical, Homo sapiens
HT-1080 = experiment: HT1080 cell viability loss – fluorescence readout (AID 620); format: functional, cell-based; settings: Homo sapiens
[27] = biological target: Luciferin 4-monooxygenase (Photinus pyralis, UniProt P08659); experiment: Counter Screen for Luciferase-based Assay Positives. [Related pubchem assays: 620, 618, 411 ]
Luciferin 4-monooxygenase, sequence (P08659 whole entry): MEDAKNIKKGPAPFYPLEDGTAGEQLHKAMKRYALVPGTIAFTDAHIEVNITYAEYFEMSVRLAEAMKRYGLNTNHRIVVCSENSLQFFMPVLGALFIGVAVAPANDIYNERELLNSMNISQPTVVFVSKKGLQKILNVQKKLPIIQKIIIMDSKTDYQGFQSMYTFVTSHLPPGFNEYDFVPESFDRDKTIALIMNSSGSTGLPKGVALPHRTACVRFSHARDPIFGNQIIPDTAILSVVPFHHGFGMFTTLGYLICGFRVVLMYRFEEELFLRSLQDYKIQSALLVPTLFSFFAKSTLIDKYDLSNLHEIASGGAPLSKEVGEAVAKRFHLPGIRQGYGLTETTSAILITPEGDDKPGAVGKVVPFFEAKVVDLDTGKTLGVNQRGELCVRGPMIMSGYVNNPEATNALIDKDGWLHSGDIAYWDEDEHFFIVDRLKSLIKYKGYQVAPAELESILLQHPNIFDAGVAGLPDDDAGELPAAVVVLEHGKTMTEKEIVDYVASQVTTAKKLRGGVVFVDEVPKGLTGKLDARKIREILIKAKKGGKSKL

Protein disulfide-isomerase, sequence (P07237 whole entry): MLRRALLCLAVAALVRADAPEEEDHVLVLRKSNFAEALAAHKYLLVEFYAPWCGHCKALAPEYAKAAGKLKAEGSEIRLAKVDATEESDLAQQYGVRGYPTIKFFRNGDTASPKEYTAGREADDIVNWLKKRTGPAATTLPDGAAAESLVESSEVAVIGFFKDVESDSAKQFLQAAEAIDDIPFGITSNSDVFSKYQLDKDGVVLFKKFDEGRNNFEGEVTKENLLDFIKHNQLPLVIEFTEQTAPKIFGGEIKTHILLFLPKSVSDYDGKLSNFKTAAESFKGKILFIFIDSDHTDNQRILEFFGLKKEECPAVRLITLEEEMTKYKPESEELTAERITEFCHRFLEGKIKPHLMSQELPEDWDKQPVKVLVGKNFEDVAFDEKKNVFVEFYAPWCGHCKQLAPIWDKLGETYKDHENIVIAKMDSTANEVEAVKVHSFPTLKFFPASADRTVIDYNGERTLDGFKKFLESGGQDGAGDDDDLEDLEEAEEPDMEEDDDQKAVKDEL
Caspase-7, sequence (P55210 24-198 limits assumed): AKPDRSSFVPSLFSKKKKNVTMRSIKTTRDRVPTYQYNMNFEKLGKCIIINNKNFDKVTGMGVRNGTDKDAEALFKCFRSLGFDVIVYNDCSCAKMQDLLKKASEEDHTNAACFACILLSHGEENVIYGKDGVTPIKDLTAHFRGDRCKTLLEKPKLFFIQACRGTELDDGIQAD
Caspase-7, sequence (P55210 207-303 limits assumed): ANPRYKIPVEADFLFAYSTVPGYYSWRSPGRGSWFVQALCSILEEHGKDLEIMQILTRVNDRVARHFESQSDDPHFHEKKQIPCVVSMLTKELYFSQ
Caspase-9, sequence (P55211 1-315 limits assumed): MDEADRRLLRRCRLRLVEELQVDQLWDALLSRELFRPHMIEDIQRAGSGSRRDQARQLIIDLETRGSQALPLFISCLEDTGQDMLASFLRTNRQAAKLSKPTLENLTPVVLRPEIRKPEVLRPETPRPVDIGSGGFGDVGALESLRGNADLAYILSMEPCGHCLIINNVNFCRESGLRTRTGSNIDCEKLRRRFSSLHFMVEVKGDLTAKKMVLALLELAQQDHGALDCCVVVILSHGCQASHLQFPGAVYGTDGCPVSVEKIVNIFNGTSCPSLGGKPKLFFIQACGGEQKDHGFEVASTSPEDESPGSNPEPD
Caspase-9, sequence (P55211 331-416 limits assumed): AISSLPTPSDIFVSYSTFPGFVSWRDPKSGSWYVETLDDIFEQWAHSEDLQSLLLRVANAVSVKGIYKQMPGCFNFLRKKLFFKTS
Oxysterols receptor LXR-beta, sequence (P55055 whole entry, the tested form may be a part): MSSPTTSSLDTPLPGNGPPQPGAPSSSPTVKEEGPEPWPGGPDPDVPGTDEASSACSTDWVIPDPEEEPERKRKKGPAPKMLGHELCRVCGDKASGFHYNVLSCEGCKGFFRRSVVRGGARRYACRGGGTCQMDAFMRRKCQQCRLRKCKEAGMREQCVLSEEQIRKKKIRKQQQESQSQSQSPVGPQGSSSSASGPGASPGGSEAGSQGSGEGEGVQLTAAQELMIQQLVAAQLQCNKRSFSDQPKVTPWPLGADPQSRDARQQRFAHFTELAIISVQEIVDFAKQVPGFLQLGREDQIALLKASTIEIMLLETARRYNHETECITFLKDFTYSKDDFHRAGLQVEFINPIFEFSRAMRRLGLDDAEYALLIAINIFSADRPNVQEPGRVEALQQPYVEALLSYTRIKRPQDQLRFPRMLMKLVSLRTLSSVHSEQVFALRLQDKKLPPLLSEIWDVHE
Ephrin type-A receptor 4, sequence (Q03137 whole entry): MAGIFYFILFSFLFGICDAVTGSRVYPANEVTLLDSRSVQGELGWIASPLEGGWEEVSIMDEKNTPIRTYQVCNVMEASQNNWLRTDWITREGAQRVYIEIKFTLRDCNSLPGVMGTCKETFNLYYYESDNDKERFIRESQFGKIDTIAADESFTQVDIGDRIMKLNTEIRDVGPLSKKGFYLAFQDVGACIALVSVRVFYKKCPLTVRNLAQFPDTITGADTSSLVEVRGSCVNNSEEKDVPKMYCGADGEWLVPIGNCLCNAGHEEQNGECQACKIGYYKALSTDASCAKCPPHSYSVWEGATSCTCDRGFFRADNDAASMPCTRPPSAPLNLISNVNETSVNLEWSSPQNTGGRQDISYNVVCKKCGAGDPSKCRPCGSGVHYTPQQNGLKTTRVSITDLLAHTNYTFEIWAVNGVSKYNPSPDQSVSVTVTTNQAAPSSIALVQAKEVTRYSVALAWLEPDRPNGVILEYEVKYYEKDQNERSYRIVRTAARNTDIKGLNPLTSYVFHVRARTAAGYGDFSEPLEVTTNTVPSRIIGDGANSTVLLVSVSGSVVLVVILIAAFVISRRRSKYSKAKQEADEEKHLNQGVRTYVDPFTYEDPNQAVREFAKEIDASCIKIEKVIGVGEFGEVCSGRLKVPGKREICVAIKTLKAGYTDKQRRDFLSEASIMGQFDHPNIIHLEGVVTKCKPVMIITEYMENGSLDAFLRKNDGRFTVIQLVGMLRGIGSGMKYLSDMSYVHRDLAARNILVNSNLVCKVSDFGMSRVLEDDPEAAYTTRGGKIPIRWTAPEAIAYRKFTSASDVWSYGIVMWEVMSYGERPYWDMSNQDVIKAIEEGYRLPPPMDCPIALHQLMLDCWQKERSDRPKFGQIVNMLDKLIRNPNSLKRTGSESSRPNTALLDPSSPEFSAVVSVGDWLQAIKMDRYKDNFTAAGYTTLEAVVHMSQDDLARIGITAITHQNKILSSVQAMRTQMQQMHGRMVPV
Paired box protein Pax-8, sequence (Q06710 whole entry): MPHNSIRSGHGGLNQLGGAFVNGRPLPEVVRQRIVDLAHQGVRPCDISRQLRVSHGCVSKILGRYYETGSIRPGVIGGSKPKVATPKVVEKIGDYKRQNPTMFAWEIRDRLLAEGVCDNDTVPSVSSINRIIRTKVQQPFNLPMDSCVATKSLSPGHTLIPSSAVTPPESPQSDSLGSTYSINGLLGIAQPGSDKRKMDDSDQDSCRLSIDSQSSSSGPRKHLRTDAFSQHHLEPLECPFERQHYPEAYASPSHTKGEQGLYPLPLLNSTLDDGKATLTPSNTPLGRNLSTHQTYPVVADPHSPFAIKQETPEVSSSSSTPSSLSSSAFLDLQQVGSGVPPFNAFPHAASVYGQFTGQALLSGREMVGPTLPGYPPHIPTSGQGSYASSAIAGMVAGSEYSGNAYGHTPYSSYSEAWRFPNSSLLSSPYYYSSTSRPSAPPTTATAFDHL
Eukaryotic translation initiation factor 4E, sequence (P63073 whole entry): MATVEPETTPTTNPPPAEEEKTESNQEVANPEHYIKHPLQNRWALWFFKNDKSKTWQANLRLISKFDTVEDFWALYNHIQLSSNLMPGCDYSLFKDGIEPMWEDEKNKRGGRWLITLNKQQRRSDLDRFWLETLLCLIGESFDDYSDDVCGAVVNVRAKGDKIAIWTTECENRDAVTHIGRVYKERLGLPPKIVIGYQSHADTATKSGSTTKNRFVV
Induced myeloid leukemia cell differentiation protein Mcl-1, sequence (Q07820 whole entry): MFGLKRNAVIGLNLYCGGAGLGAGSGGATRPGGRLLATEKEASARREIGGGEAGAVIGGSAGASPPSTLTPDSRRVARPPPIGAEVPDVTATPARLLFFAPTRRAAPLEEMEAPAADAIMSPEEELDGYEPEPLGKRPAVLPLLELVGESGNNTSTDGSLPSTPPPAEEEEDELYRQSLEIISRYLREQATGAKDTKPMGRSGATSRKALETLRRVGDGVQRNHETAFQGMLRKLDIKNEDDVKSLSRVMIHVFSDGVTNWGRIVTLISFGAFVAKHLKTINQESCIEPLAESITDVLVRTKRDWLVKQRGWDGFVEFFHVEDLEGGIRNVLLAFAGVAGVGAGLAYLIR
Caspase-8, sequence (Q14790 217-374 limits assumed): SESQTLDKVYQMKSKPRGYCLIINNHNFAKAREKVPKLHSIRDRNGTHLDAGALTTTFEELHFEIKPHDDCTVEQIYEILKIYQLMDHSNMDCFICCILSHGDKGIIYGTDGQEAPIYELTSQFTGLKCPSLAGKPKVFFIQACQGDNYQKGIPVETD
Caspase-8, sequence (Q14790 385-479 limits assumed): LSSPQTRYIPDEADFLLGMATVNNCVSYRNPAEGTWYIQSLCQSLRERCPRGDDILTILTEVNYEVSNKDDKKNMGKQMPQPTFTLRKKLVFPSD

CCOC(=O)C1(CCOc2ccccc2)CCN(C(=O)c2ccc(O)c(Cl)c2)CC1
AC50 [1]: 3 µM (active)

C[C@@H]1CN([C@@H](C)CO)C(=O)Cc2cc(NS(=O)(=O)c3ccccc3)ccc2O[C@H]1CN(C)Cc1ccc(C(F)(F)F)cc1
AC50 [2]: 23.9 µM (active)
AC50 [3]: 18.8 µM (active)
AC50 (Paired box protein Pax-8): 6.03 µM (active)
AC50 [4]: 28.5 µM (active)
AC50 [5]: 23.4 µM (active)
AC50 [6]: 17 µM (active)
AC50 [7]: 31.6 µM (active)
AC50 [8]: 45.6 µM (active)
AC50 [9]: 32.6 µM (active)
AC50 [10]: 11.1 µM (active)

COc1ccc(S(=O)(=O)Nc2cc(Sc3nc[nH]n3)c(O)c3ccccc23)cc1
IC50 [11]: 7.73 µM (active)
AC50 (Caspase-7): 8.7 µM (active)
AC50 (Caspase-8): 22 µM (active)
IC50 [12]: > 64 µM (inactive)
AC50 (Caspase-9): 31.6 µM (active)
IC50 (Ephrin type-A receptor 4): 6.77 µM (active)
AC50 (Caspase-6): 0.998 µM (active)

COc1ccc(C#Cc2ccc3c(c2)O[C@H](CN(C)C(=O)Nc2cccc(OC)c2)[C@H](C)CN([C@@H](C)CO)S3(=O)=O)cc1
AC50 (HEK293): 26.3 µM (active)
AC50 [13]: 26.3 µM (active)
AC50 [14]: 1.06 µM (active)
AC50 [15]: 2.21 µM (active)
AC50 [16]: 1.46 µM (active)
AC50 [17]: 1.69 µM (active)

CC(=O)/N=c1\c(C#N)cc2c(=O)n3ccccc3nc2n1CCCOC(C)C
AC50 [18]: > 52 µM (inactive)

[O-][S+](Cc1cn(Cc2ccccc2)nn1)c1nnc(-c2ccc(Cl)cc2)o1 (configuration not stated)
AC50 [19]: 24.2 µM (active)
IC90 [20]: 125 µM (active)
IC90 [21]: 2 µM (active)
AC50 [22]: 19.6 µM (active)
IC90 [23]: 2 µM (active)

COc1ccccc1C(=O)NC(=S)Nc1cccnc1Cl
EC50 (cells): > 67.5 µM (inactive)
EC50 [24]: > 67.5 µM (inactive)

Nc1ccc(C(=O)Nc2nc3ccccc3s2)cc1
AC50 [25]: 26 µM (active)
AC50 (Escherichia coli): 47.5 µM (active)
AC50 [26]: 4.15 µM (active)
EC50 (HT-1080): > 50 µM (not active)
EC50 [27]: 0.32 µM (active)
